Data published in patent publication US20230313318A1, “MICR[…] METHOD OF USE THEREOF” (priority 2022, published 2023).

Tested on: D. immitis GA III (susceptible isolate)
Set-up: species or system Dirofilaria immitis
Settings: in vivo

In the case of Milbemycin oxime [MBO], the “Number of GA III Worms” value is reported as 0 and the “Percentage of GA III Worms” value (po) is reported as 0%.
